In PubChem BioAssay (NCI):
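Following 48 hours of exposure in 96-well plates, responses at five concentrations were used to interpolate endpoints linearly. TGI marks complete inhibition of growth.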

Experiments:
Experiment in all cases: NCI anticancer screen, dose series, 48 h
SF-268 CNS = tested on: SF-268 CNS
OVCAR-8 ovarian = tested on: OVCAR-8 ovarian
M14 melanoma = tested on: M14 melanoma
TK-10 renal = tested on: TK-10 renal
NCI/ADR-RES ovarian = tested on: NCI/ADR-RES ovarian
EKVX NSCLC = tested on: EKVX NSCLC
SF-295 CNS = tested on: SF-295 CNS
NCI-H460 lung = tested on: NCI-H460 lung
T-47D breast = tested on: T-47D breast
SK-MEL-2 melanoma = tested on: SK-MEL-2 melanoma
SK-MEL-5 melanoma = tested on: SK-MEL-5 melanoma
NCI-H23 lung = tested on: NCI-H23 lung
ACHN renal = tested on: ACHN renal
DU-145 prostate = tested on: DU-145 prostate
RPMI-8226 leukemia = tested on: RPMI-8226 leukemia
PC-3 prostate = tested on: PC-3 prostate
OVCAR-4 ovarian = tested on: OVCAR-4 ovarian
K-562 leukemia = tested on: K-562 leukemia
HL-60(TB) leukemia = tested on: HL-60(TB) leukemia

Row | Compound | TGI (SF-268 CNS) [µM] | TGI (OVCAR-8 ovarian) [µM] | TGI (M14 melanoma) [µM] | TGI (TK-10 renal) [µM] | TGI (NCI/ADR-RES ovarian) [µM] | TGI (EKVX NSCLC) [µM] | TGI (SF-295 CNS) [µM] | TGI (NCI-H460 lung) [µM] | TGI (T-47D breast) [µM] | TGI (SK-MEL-2 melanoma) [µM] | TGI (SK-MEL-5 melanoma) [µM] | TGI (NCI-H23 lung) [µM] | TGI (ACHN renal) [µM] | TGI (DU-145 prostate) [µM] | TGI (RPMI-8226 leukemia) [µM] | TGI (PC-3 prostate) [µM] | TGI (OVCAR-4 ovarian) [µM] | TGI (K-562 leukemia) [µM] | TGI (HL-60(TB) leukemia) [µM]
1 | COc1cc(/C=C2/CCCc3ccccc3C2=O)cc(OC)c1OC | > 52.3 | > 69.8 | > 67.4 | > 100 | > 100 | > 92.2 | > 57.6 | > 100 | > 100 | > 55 | 13.6 | > 87 | > 100 | > 58.3 | > 78.9 | > 59.3 | > 100 | > 23.8 | > 100
2 | CC(=O)N(C(=O)CC(=O)NNCc1ccccc1Cl)c1ccc(Cl)cc1 | > 10 | > 10 | > 10 | > 10 | > 10 | > 10 | > 10 | > 10 | > 10 | > 10 | > 10 | > 10 | > 10 | > 10 | > 10 | > 10 | > 10 | > 10 | > 10
3 | Cc1cccc(-c2cccc(COCc3cccc(-c4cccc(CO)n4)n3)n2)n1 | > 50 | > 50 | > 50 | > 50 | > 50 | > 50 | > 5 | > 50 | > 50 | > 50 | > 50 | – | > 50 | > 50 | > 50 | > 50 | > 50 | > 50 | > 50
4 | CC(=O)N(CN1C(=O)CCC1C(=O)O)c1ccc(C)cc1 (stereo not drawn) | > 100 | > 100 | > 100 | > 100 | > 100 | > 100 | > 100 | > 100 | > 100 | > 100 | > 100 | > 100 | > 100 | > 100 | > 100 | > 100 | > 100 | > 100 | > 100
5 | C=CC(C)CCC(C/C=C(\C)CCCC(C)C)C(=C)CCCC(C)C (stereo not drawn) | > 100 | > 100 | > 100 | > 100 | > 100 | > 100 | > 100 | > 100 | > 100 | > 100 | > 100 | > 100 | > 100 | > 100 | > 100 | > 100 | > 100 | > 100 | > 100
6 | Nc1nc(Cl)cc(NCC2(CO)CC(CCCc3ccccc3)C2)n1 (stereo not drawn) | > 100 | > 100 | > 100 | > 100 | > 100 | > 100 | > 100 | > 100 | > 100 | > 100 | > 100 | > 100 | > 100 | > 100 | > 100 | > 100 | > 100 | > 100 | > 100
7 | O=[N+]([O-])c1ccc(CSc2c3ccccc3nc3ccccc23)cc1 | 22.8 | 10.8 | 16.6 | 17.4 | 52.1 | 34.7 | 41.7 | 46.9 | 4.18 | 32.3 | 30.5 | 25.5 | 12.9 | 5.92 | 9.29 | 20 | 31.1 | > 34.9 | 22.8
8 | c1cc2c(cc1NC1=NCCO1)CCCC2 | 25 | 12.5 | 12.2 | 52.5 | 8.84 | 47 | 25.6 | 15.7 | > 88.7 | 11.4 | 9.17 | 16 | 72.9 | 24.6 | 12 | 15.5 | 71.2 | > 24.5 | 7.5
9 | COC(=O)c1c(O)ccc2c1c1cc3ccccc3c(O)c1n2Cc1ccccc1Cl | 97.7 | > 100 | 59.1 | > 100 | 64.3 | 87.1 | 40.3 | 78.4 | 60.7 | 40.7 | 56.2 | 46.2 | 95.7 | > 100 | 70 | > 100 | 51.1 | > 100 | 74.9
10 | COc1ccc(OC)c2sc(N3C(=O)/C(=C/c4ccc(SC)cc4)N=C3c3ccccc3)nc12 | 88.1 | 92.6 | 46.1 | > 100 | 89.9 | > 100 | > 100 | > 100 | 87 | 42.7 | 33.8 | – | 86.6 | > 100 | 63.3 | 50.6 | 87.6 | > 100 | 64.9
